Laboratory results taken from ChEMBL document CHEMBL4706734, “Novel Hexahydropyrimidine Compounds for Treating Malaria” (ACS Med Chem Lett, 2021).

Test system: Plasmodium falciparum
Assay: Antimalarial activity against asexual blood stage of Plasmodium falciparum 3D7 infected in human erythrocytes assessed as inhibition of parasite growth and propagation incubated for 72 hrs by SYBR green dye based fluorescence assay
Format: functional, organism-based
Settings: 3D7, Erythrocyte

SMILES	IC50 [nM]
C[C@@H]1C[C@H](N2C(=N)N[C@](C)(c3cccc(NC(=O)c4cc(C#N)cn4C)c3Cl)CC2=O)CCO1	5
C[C@@H]1C[C@H](N2C(=N)N[C@](C)(c3cccc(NC(=O)c4cccc(C#N)c4F)c3Cl)CC2=O)CCO1	6
Cc1cc(Cl)cc(C(=O)Nc2cccc([C@]3(C)CC(=O)N([C@@H]4CCO[C@H](C)C4)C(=N)N3)c2Cl)c1	9
C[C@@H]1C[C@H](N2C(=N)N[C@](C)(c3cccc(NC(=O)c4cccc(C#N)c4)c3Cl)CC2=O)CCO1	8
C[C@@H]1C[C@H](N2C(=N)N[C@](C)(c3cccc(NC(=O)c4cc(Cl)cc(C#N)c4)c3Cl)CC2=O)CCO1	7
C[C@@H]1C[C@H](N2C(=N)N[C@](C)(c3cccc(NC(=O)c4cccc(Cl)c4)c3Cl)CC2=O)CCO1	9
